The source of these data is PMC11877286, “Discovery of novel theophylline derivatives bearing tetrazole scaffold for the treatment of Alzheimer's disease” (RSC Advances, 2025).

Usually inhibition stands for the change of the read-out against control, counted positive when it falls. A word on the IC50: it is the point on the concentration scale where inhibition reaches its midpoint.

Test [1] concerns the target T1, BACE1 (Homo sapiens, UniProt P56817).
T1 construct: purchased Beyotime Biotech
Nature of the test: BACE1 Inhibitor Screening Kit (FRET substrate). The note with it: 200 μM compound. The test is classed as biochemical.
Experimental: Briefly, BACE1 was incubated with various concentrations of compounds for 5 min at 37 °C in a black 96-well plate, followed by adding a specific fluorescence resonance energy transfer (FRET) substrate into the reaction mixture. […] The inhibitory percentage of BACE1 activity was calculated as following: I(%) = (ΔFIcontrol − ΔFIcompound) × 100/ΔFIcontrol, in which ΔFI denotes the change of fluorescent intensity per min. The inhibitory activity of compounds was initially screened at a fixed concentration of 200 μM.

In test [2] the target is T2, AChE (Homo sapiens, UniProt P22303).
T2 construct: purchased Sigma-Aldrich
T2 sequence (P22303 32-614): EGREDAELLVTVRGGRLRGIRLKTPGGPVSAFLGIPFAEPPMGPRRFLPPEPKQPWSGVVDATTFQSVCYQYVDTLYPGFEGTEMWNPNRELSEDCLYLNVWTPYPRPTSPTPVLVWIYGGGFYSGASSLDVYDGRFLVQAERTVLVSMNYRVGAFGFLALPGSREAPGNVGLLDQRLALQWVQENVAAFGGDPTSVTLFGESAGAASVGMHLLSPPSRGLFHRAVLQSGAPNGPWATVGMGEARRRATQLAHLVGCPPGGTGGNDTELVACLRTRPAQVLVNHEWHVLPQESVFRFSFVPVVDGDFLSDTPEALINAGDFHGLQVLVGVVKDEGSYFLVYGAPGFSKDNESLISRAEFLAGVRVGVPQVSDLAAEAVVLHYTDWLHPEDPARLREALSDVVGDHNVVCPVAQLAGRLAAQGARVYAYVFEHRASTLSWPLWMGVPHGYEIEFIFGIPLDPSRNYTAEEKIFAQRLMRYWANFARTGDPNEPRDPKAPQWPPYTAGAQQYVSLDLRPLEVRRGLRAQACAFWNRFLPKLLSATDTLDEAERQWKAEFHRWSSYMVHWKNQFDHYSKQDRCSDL
Nature of the test: biochemical. The conditions noted are these: five concentrations 256 μM to 16 μM, triplicate, pH 8.0 buffer.
Experimental: AChE inhibition was assessed on a Varioskan Lux 96-well plate reader. […] The IC50 values were determined using TableCurve 2Dv4 software.

T1 sequence (P56817 46-501, species assumed): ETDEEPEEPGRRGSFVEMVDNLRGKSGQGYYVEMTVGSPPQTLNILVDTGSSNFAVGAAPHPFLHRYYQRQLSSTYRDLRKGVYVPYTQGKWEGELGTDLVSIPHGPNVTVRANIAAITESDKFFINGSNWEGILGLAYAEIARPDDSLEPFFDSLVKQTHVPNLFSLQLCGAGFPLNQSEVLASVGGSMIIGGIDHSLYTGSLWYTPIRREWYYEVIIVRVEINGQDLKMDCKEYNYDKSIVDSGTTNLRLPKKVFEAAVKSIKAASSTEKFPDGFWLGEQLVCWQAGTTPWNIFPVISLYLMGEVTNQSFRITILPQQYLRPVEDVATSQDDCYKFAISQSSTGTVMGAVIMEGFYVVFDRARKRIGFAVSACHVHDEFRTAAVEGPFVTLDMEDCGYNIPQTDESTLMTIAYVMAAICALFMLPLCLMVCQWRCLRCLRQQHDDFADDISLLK

As to `Cn1c(=O)c2c(ncn2Cc2nnn(CCCCCC(=O)Nc3ccc(I)cc3F)n2)n(C)c1=O` [Compound 17], in test [1], the inhibition at 200 µM was 18.7 ± 2.26%. In test [2], this compound showed an IC50 of 105 ± 12.8 µM.

Take `COc1ccc(OC(=O)CCCCCn2nnc(Cn3cnc4c3c(=O)n(C)c(=O)n4C)n2)cc1` [Compound 19]: in test [1], the inhibition at 200 µM is -1.23 ± 0.35%. In addition, the half-maximal inhibitory concentration (IC50) in test [2] worked out at 267 ± 30.4 µM.

Take `COc1ccc(OC(=O)CCCCn2nnc(Cn3cnc4c3c(=O)n(C)c(=O)n4C)n2)cc1` [Compound 13]: in test [1], the inhibition at 200 µM is 1.4 ± 0.03%. Further, the midpoint of inhibition in test [2], the IC50, lay at 303 ± 34.1 µM.

Turning to `Cn1c(=O)c2c(ncn2Cc2nnnn2CCCCCCC(=O)Nc2ccc(I)cc2F)n(C)c1=O` [Compound 27], the inhibition at 200 µM in test [1] is 7.69 ± 0.86%. Moreover, inhibition in test [2] was half-maximal at 143 ± 23.1 µM (IC50).

`Cn1c(=O)c2c(ncn2Cc2nnn(CCCCCC(=O)Nc3ccc(F)c(Cl)c3)n2)n(C)c1=O` [Compound 16]: the inhibition at 200 µM in test [1] is -1.54 ± 1.19%. 115 ± 10.6 µM corresponded to half-maximal inhibition in test [2] (IC50).

As to `Cn1c(=O)c2c(ncn2Cc2nnnn2CCCCCCC(=O)Nc2ccc(F)c(Cl)c2)n(C)c1=O` [Compound 26], the inhibition at 200 µM in test [1] was 8.89 ± 0.49%. Besides, the half-maximal inhibitory concentration (IC50) in test [2] amounted to 55.4 ± 18.6 µM.

Turning to `Cn1c(=O)c2c(ncn2Cc2nnn(CCCCC(=O)Nc3ccccc3)n2)n(C)c1=O` [Compound 11], in test [1], the inhibition at 200 µM is -0.32 ± 2.05%. Besides, the concentration for half-maximal inhibition (IC50) in test [2] came to 110 ± 17.5 µM.

For the compound `Cn1c(=O)c2c(ncn2Cc2nnn(CCCCCC(=O)Oc3ccccc3)n2)n(C)c1=O` [Compound 18], the inhibition at 200 µM in test [1] is 0.07 ± 3.57%. In addition, the IC50 in test [2] stood at 94.4 ± 8.27 µM.

Turning to `COc1ccc(OC(=O)CCCCCCn2nnc(Cn3cnc4c3c(=O)n(C)c(=O)n4C)n2)cc1` [Compound 24], the inhibition at 200 µM in test [1] was 0.74 ± 0.17%. In test [2], this compound gave a concentration for half-maximal inhibition (IC50) of 106 ± 25.7 µM.

In the case of `Cn1c(=O)c2c(ncn2Cc2nnn(CCCCC(=O)Nc3ccc(I)cc3F)n2)n(C)c1=O` [Compound 12], the inhibition at 200 µM in test [1] is 18.2 ± 3.9%. For the same compound, the half-maximal inhibitory concentration (IC50) in test [2] was 15.68 ± 0.06 µM.

Take `Cn1c(=O)c2c(ncn2Cc2nnnn2CCCCCCC(=O)Nc2ccc(Br)cc2)n(C)c1=O` [Compound 25]: the inhibition at 200 µM in test [1] is -0.48 ± 0.76%. The midpoint of inhibition in test [2], the IC50, lay at 70.3 ± 0.1 µM.

Turning to `Cn1c(=O)c2c(ncn2Cc2nnn(CCCCCCC(=O)Nc3ccc(Br)cc3)n2)n(C)c1=O` [Compound 22], the inhibition at 200 µM in test [1] was determined as 1.56 ± 3.43%. In test [2], this compound showed an IC50 of 63.5 ± 2.48 µM.

As to `Cn1c(=O)c2c(ncn2Cc2nnn(CCCCCC(=O)Nc3ccc(Br)cc3)n2)n(C)c1=O` [Compound 15], the inhibition at 200 µM in test [1] worked out at 8.94 ± 1.45%. This compound also returned a half-maximal inhibitory concentration (IC50) in test [2] of 84.1 ± 20.2 µM.

Consider `Cn1c(=O)c2c(ncn2Cc2nnn(CCCCCC(=O)Nc3cccc(Cl)c3)n2)n(C)c1=O` [Compound 14], for which the inhibition at 200 µM in test [1] was -2.01 ± 0.83%. In test [2], this compound had a concentration for half-maximal inhibition (IC50) of 153 ± 45 µM.

Turning to `Cn1c(=O)c2c(ncn2Cc2nnn(CCCCCCC(=O)Nc3ccc(Cl)cc3)n2)n(C)c1=O` [Compound 21], in test [1], the inhibition at 200 µM was 12.2 ± 0.47%. In test [2], this compound returned an IC50 of 126 ± 22.4 µM.

Consider `Cn1c(=O)c2c(ncn2Cc2nnn(CCCCCCC(=O)Nc3ccc(F)c(Cl)c3)n2)n(C)c1=O` [Compound 23], for which the inhibition at 200 µM in test [1] came out at 12.6 ± 0.45%. The same compound showed a 50% inhibitory concentration (IC50) in test [2] of 110 ± 17.2 µM.

Turning to `Cn1c(=O)c2c(ncn2Cc2nnn(CCCCCCC(=O)Nc3cccc(Cl)c3)n2)n(C)c1=O` [Compound 20], the inhibition at 200 µM in test [1] was found to be 10.7 ± 0.54%. This compound also came in with an IC50 in test [2] of 221 ± 37.7 µM.
